Measured values published in the OPERA property sets (Mansouri et al. 2018).
Values after ≈ are worked out from the molar mass of the structure shown.

Details: not given

Work on `CCCCCCl` yielded a logP of 2.73.

Same assay, conditions: 25 °C

Point of comparison: `CC(C)CC(C)(C)O`, solubility 113 mM (≈ 13200 µg/mL). Against it:
- C=COC=C — within 1.5-fold, 77.6 mM (≈ 5440 µg/mL)
- C=CC(O)CC (stereo unspecified) — 9.3-fold higher, 1050 mM (≈ 90000 µg/mL)
- CCOC(C)C — 2.5-fold higher, 278 mM (≈ 24500 µg/mL)
- CCCCOC(=O)c1ccc(N)cc1 — 65-fold lower, 1.75 mM (≈ 337 µg/mL)
- CCOC(=O)CCCCCC(=O)OCC — 12-fold lower, 9.4 mM (≈ 2030 µg/mL)
- CCCCCC(=O)OCC — 26-fold lower, 4.36 mM (≈ 629 µg/mL)
- CC(C)COC=O — within 1.5-fold, 99.9 mM (≈ 10200 µg/mL)
- CCCC(Cl)Cl — 29-fold lower, 3.96 mM (≈ 504 µg/mL)
- CCCCC(=O)OCC — 6.6-fold lower, 17 mM (≈ 2210 µg/mL)
- Clc1ccccc1Br — 300-fold lower, 0.383 mM (≈ 73.4 µg/mL)
- CCCOCC — 1.5-fold higher, 173 mM (≈ 15200 µg/mL)
- CCCCCCCCCC(=O)OCC — 1400-fold lower, 0.0793 mM (≈ 15.9 µg/mL)
- CCCCCCC(=O)OCC — 62-fold lower, 1.83 mM (≈ 290 µg/mL)
- Clc1ccccc1I — 390-fold lower, 0.291 mM (≈ 69.4 µg/mL)
- CCCCCCCC(=O)OCC — 280-fold lower, 0.407 mM (≈ 70.1 µg/mL)
- CC(C)C(C)(C)O — 3.6-fold higher, 407 mM (≈ 41500 µg/mL)
- CCC(C)C(C)(C)O (stereo unspecified) — within 1.5-fold, 135 mM (≈ 15700 µg/mL)
- CCCCOC — within 1.5-fold, 102 mM (≈ 9010 µg/mL)
- CCCCCCC=O — 10-fold lower, 10.9 mM (≈ 1250 µg/mL)
- Ic1cccc(I)c1 — 4000-fold lower, 0.0286 mM (≈ 9.43 µg/mL)
- C#CCCCCCCC — 1700-fold lower, 0.068 mM (≈ 8.45 µg/mL)
- COc1ccc(NC(C)=O)cc1 — within 1.5-fold, 91.1 mM (≈ 15100 µg/mL)
- CCCCCCCCC(=O)OCC — 720-fold lower, 0.158 mM (≈ 29.5 µg/mL)
- Brc1ccc(Br)c(Br)c1 — 5100-fold lower, 0.0222 mM (≈ 7 µg/mL)
- CCC(=O)C(C)C — within 1.5-fold, 155 mM (≈ 15500 µg/mL)
- CC(C)CC(C)CO (stereo unspecified) — 4.5-fold lower, 25.1 mM (≈ 2910 µg/mL)
- CCOC(=O)CCCCCCC(=O)OCC — 38-fold lower, 2.95 mM (≈ 679 µg/mL)
- CCCCCCCCCC(C)O (stereo unspecified) — 98-fold lower, 1.15 mM (≈ 197 µg/mL)
- CCCCCC[C@@H](O)CC — 52-fold lower, 2.18 mM (≈ 315 µg/mL)
- CCCOC(=O)CC — 2.5-fold lower, 45.6 mM (≈ 5300 µg/mL)
- CCC(C)(O)C(C)(C)C (stereo unspecified) — 2.1-fold lower, 53.6 mM (≈ 6980 µg/mL)
- CC(C)CCOC=O — 3.9-fold lower, 29.3 mM (≈ 3400 µg/mL)
- FC(F)(F)CCl — within 1.5-fold, 77.7 mM (≈ 9200 µg/mL)
- C/C=C\C — 11-fold lower, 10.3 mM (≈ 580 µg/mL)
- Clc1cccc(I)c1 — 390-fold lower, 0.288 mM (≈ 68.6 µg/mL)
- CCC(C)C(O)C(C)CC (stereo unspecified) — 37-fold lower, 3.08 mM (≈ 445 µg/mL)
- CCC(=O)OC(C)C — 2.2-fold lower, 51.2 mM (≈ 5950 µg/mL)
- CCOC(=O)CCCCCCCC(=O)OCC — 110-fold lower, 1.02 mM (≈ 250 µg/mL)

Same assay, conditions: 27 °C

With `Ic1ccccc1I` the solubility was 0.0591 mM (≈ 19.5 µg/mL).
